Assay results: patent publication US20090318446A1, “4-(1H-Indol-3-yl)-Pyrimidin-2-Ylamine Derivatives and Their Use in Therapy” (Cyclacel Limited, priority 2005, published 2009)
pIC50: −log10 of the molar value. Read-outs that look alike come from different tables or passages of the source.

What was measured:
CDK2/cyclin A = CDK2/cyclin A (Homo sapiens, UniProt P24941); test: Kinase assay CDK2/cyclin A; type: biochemical; details: Table 2; read-out: Kinase inhibition IC50 CDK2A
Description: (§1) The compounds from the examples above were investigated for their ability to inhibit the enzymatic activity of various protein kinases. This was achieved by measurement of incorporation of radioactive phosphate from ATP into appropriate polypeptide substrates. Recombinant protein kinases and kinase complexes were produced or obtained commercially. Assays were performed using 96-well plates and appropriate assay buffers (typically 25 mM β-glycerophosphate, 20 mM MOPS, 5 mM EGTA, 1 mM DTT, 1 mM […], pH 7.4), into which were added 2-4 μg of active enzyme with appropriate substrates. The reactions were initiated by addition of Mg/ATP mix (15 mM MgCl2+100 μM ATP with 30-50 kBq per well of [γ-^32P]-ATP) and mixtures incubated as required at 30° C. Reactions were stopped on ice, followed by filtration through p81 filterplates or GF/C filterplates (Whatman Polyfiltronics, Kent, UK). After washing 3 times with 75 mM aq orthophosphoric acid, plates were dried, scintillant added and incorporated radioactivity measured in a scintillation counter (TopCount, Packard Instruments, Pangbourne, Berks, UK). Compounds for kinase assay were made up as 10 mM stocks in DMSO and diluted into 10% DMSO in assay buffer. Data was analysed using curve-fitting software (GraphPad Prism version 3.00 for Windows, GraphPad Software, San Diego Calif. USA) to determine IC50 values (concentration of test compound which inhibits kinase activity by 50%).

Drosophila Aurora A = Drosophila Aurora A (Drosophila melanogaster, UniProt Q9VGF9); test: Aurora A kinase assay (Drosophila enzyme); type: biochemical; details: Table 3, values marked *: Drosophila Aurora A; read-out: Kinase inhibition Aurora A (*Drosophila Aurora A)
Description: as §1

CDK2/cyclin E = CDK2/cyclin E (Homo sapiens, UniProt P24941); test: Kinase assay CDK2/cyclin E; type: biochemical
Description: as §1

CDK7/cyclin H = CDK7/cyclin H (Homo sapiens, UniProt P50613); test: CDK 7 assay; type: biochemical
Description: CTD peptide substrate (biotinyl-Ahx-(Tyr-Ser-Pro-Thr-Ser-Pro-Ser)4-NH2; 1-2 mg/mL) and recombinant human CDK7/cyclin H, CDK9/cyclin TI, or CDK9/cyclin K (0.5-2 μg) were incubated for 45 min at 30° C. in the presence of varying amounts of test compound in 20 mM MOPS pH 7.2, 25 mM β-glycerophosphate, 5 mM EGTA, 1 mM DTT, 1 mM sodium vanadate, 15 mM MgCl2, and 100 μM ATP (containing a trace amount of ^32PγATP) in a total volume of 25 μL in a 96-well microtiter plate. The reaction was stopped by placing the plate on ice for 2 min. Avidin (50 μg) was added to each well, and the plate was incubated at room temp for 30 min. The samples were transferred to a 96-well P81 filter plate, and washed (4×200 μL per well) with 75 mM phosphoric acid. Microscint 40 scintillation liquid (50 μL) was added to each well, and the amount of ^32P incorporation for each sample was measured using a Packard Topcount microplate scintillation counter.

CDK4/cyclin D1 = CDK4/cyclin D1 (Homo sapiens, UniProt P11802); test: Kinase assay CDK4/cyclin D1; type: biochemical
Description: as §1

A2780 = test: MTT cytotoxicity assay, A2780; type: cell-based; details: Homo sapiens, after incubation
Description: (§2) The compounds of the invention were subjected to a standard cellular proliferation assay using human tumour cell lines obtained from the ATCC (American Type Culture Collection, 10801 University Boulevard, Manessas, Va. 20110-2209, USA). […] C.; Thomas, D. G.; Darling, J. L. Anti Cancer Drugs 1996, 7, 331-8; Loveland, B. E.; Johns, T. G.; Mackay, 1. R.; Vaillant, F.; Wang, Z. X.; Hertzog, P. J. Biochemistry International 1992, 27, 501-10). In short: cells were seeded into 96-well plates according to doubling time and incubated overnight at 37° C. […] MTT was made up as a stock of 5 mg/mL in cell media and filter-sterilised. Media was removed from cells followed by a wash with 200 μL PBS. MTT solution was then added at 20 μL per well and incubated in the dark at 37° C. for 4 h MTT solution was removed and cells again washed with 200 μL PBS. MTT dye was solubilised with 200 μL per well of DMSO with agitation. Absorbance was read at 540 nm and data analysed using curve-fitting software (GraphPad Prism version 3.00 for Windows, GrapbPad Software, San Diego Calif. USA) to determine IC50 values (concentration of test compound which inhibits cell growth by 50%).

Mia-PaCa-2 = test: MTT cytotoxicity assay, Mia-PaCa-2; type: cell-based; details: Homo sapiens, after incubation
Description: as §2

aurora-B = biological target: T1, aurora-B (Homo sapiens, UniProt Q96GD4); test: Aurora-B (human) kinase assay; type: biochemical; details: Table 3; read-out: Kinase inhibition Aurora B
T1 construct: purchased Upstate, Dundee, UK
Description: This was achieved by measurement of incorporation of radioactive phosphate from ATP into Kemptide substrate (LRRASLG), upon phosphorylation by commercially obtained aurora-B (human, Upstate, Dundee, UK). Assays were performed using 96-well plates and appropriate assay buffers (20 mM Tris, 25 mM β-glycerophosphate, 5 mM EGTA, 1 mM DTT, 1 mM sodium vanadate, pH 7.5), into which were added 75 ng of pre-activated enzyme with 500 μM substrate (Kemptide). The reactions were initiated by addition of MgATP mix (15 mM MgCl2+100 μM ATP with 15-25 kBq per well of [γ-^32P]-ATP) and mixtures incubated for 60 min at 30° C. Reactions were stopped by addition of an equal volume of 75 mM aq orthophosphoric acid, followed by filtration through p81 filterplates (Whatman Polyfiltronics, Kent, UK). After washing 4 times with 75 mM aq orthophosphoric acid, plates were dried, scintillant added and incorporated radioactivity measured in a scintillation counter (TopCount, Packard Instruments, Pangbourne, Berks, UK). Compounds for kinase assay were made up as 10 mM stocks in DMSO and diluted into 10% DMSO in assay buffer. Data was analysed using curve-fitting software (XLfit version 4.0.2, IDBS, Guildford, Surrey, UK) to determine IC50 values (concentration of test compound which inhibits kinase activity by 50%).
Aurora-B (human, Upstate, Dundee, UK) was pre-activated immediately prior to kinase assay in appropriate buffers (20 mM Tris, 25 mM β-glycerophosphate, 5 mM EGTA, 1 mM DTT, 1 mM sodium vanadate, pH 7.5) by incubating 15 μg of enzyme with 4 μg INCENP (Upstate, Dundee, UK) in the presence of MgATP mix (15 mM MgCl2+100 μM ATP) for 15 min at 30° C.

[1] = Table 2, read-out: Kinase inhibition IC50 CDK2E
[2] = Table 3, read-out: Kinase inhibition CDK2E
[3] = Table 2, read-out: Kinase inhibition IC50 CDK7H
[4] = Table 2, read-out: Kinase inhibition IC50 CDK4D1
[5] = Table 3, read-out: Kinase inhibition CDK7H
[6] = Table 3, read-out: Kinase inhibition CDK4D1

T1 sequence (Q96GD4 whole entry): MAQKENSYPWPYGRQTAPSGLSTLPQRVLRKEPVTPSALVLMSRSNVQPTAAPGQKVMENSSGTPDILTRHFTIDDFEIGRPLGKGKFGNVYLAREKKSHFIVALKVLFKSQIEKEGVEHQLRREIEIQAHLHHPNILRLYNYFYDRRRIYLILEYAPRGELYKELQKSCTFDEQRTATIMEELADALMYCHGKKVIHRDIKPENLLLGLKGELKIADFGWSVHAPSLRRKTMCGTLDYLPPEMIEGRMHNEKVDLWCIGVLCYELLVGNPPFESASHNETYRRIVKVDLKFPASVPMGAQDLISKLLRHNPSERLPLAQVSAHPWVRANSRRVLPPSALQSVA
Chain of CDK7/cyclin H (P50613 whole entry): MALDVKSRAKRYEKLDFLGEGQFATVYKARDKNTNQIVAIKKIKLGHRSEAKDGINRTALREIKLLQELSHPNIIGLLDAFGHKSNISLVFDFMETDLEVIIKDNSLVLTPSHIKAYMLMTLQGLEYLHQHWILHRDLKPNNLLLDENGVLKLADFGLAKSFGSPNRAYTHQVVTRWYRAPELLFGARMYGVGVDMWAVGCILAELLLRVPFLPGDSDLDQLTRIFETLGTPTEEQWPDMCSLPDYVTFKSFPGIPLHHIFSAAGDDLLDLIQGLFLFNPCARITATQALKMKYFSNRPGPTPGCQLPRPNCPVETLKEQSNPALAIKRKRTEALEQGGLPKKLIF
Chain of CDK7/cyclin H (P51946 whole entry partner): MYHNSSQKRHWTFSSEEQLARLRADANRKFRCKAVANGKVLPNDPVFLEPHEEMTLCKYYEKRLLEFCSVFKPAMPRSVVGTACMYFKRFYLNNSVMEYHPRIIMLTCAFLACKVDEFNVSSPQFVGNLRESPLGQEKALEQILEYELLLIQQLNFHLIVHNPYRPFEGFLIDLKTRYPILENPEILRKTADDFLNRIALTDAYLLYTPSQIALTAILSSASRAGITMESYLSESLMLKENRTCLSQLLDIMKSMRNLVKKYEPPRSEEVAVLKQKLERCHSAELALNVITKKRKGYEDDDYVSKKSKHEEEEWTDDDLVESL
Chain of CDK4/cyclin D1 (P11802 whole entry, species assumed): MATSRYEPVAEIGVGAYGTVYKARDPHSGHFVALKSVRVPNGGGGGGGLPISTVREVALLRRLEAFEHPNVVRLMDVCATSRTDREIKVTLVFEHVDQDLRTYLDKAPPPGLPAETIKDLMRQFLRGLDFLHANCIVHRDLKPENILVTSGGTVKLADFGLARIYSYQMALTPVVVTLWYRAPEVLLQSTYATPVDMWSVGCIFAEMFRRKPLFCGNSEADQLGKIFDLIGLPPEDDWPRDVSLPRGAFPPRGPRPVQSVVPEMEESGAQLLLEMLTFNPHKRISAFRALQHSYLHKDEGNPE
Chain of CDK4/cyclin D1 (P24385 whole entry partner, species assumed): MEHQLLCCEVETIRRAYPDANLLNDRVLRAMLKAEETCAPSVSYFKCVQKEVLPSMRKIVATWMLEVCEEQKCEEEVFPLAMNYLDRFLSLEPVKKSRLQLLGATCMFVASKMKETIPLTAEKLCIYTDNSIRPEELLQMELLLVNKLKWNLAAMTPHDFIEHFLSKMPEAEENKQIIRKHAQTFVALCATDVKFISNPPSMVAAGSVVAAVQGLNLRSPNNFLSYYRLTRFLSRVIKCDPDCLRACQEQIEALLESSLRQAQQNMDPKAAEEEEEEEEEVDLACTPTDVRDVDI
Chain of Drosophila Aurora A (Q9VGF9 entry or part of it): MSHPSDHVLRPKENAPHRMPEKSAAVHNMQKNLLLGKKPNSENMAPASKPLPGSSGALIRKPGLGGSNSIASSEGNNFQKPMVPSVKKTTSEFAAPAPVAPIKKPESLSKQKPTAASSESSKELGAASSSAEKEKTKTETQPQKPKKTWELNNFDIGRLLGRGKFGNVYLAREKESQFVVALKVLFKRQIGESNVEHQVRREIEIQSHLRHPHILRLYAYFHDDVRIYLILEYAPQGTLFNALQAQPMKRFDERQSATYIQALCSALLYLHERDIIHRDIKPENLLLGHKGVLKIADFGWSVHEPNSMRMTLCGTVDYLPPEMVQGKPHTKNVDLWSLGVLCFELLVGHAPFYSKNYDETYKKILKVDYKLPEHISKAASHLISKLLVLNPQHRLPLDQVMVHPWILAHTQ

Row | SMILES | pIC50 (CDK2/cyclin A) | pIC50 (Drosophila Aurora A) | pIC50 (CDK2/cyclin E; [1]) | pIC50 (CDK2/cyclin E; [2]) | pIC50 (CDK7/cyclin H; [3]) | pIC50 (CDK4/cyclin D1; [4]) | pIC50 (CDK7/cyclin H; [5]) | pIC50 (CDK4/cyclin D1; [6]) | pIC50 (A2780) | pIC50 (Mia-PaCa-2) | pIC50 (aurora-B)
1 | O=[N+]([O-])c1cccc(Nc2nccc(-c3c[nH]c4ccccc34)n2)c1 [Compound 2, [4-(1H-Indol-3-yl)-pyrimidin-2-yl]-(3-nitro-phenyl)-amine] | < 4.00 | 6.56 | 5.54 | 5.53 | < 4.00 | < 4.00 | – | – | – | – | –
2 | COc1ccc(Nc2nccc(-c3c[nH]c4ccccc34)n2)cn1 [Compound 4, [4-(1H-Indol-3-yl)-pyrimidin-2-yl]-(6-methoxy-pyridin-3-yl)-amine] | 5.59 | 6.61 | 5.89 | 5.90 | 5.27 | 6.00 | 5.26 | 6.00 | – | – | –
3 | CC(=O)N1CCN(c2ccc(Nc3nccc(-c4c[nH]c5ccccc45)n3)cc2)CC1 [Compound 6, 4-(1H-indol-3-yl)-N-(4-acetylpiperazin-1-ylphenyl)pyrimidin-2-amine] | – | – | – | 5.35 | – | – | – | 5.36 | 6.10 | 6.11 | 6.90
4 | CC1CN(c2ccc(Nc3nccc(-c4c[nH]c5ccccc45)n3)cc2)CC(C)O1 (stereo not drawn) [Compound 9] | – | – | – | 5.31 | – | – | 5.18 | 5.26 | 5.26 | 5.21 | 6.80
5 | CN(C)c1ccc(Nc2nccc(-c3c[nH]c4ccccc34)n2)cc1 [Compound 10, N′-[4-(1H-indol-3-yl)pyrimidin-2-yl]-N,N-dimethylbenzene-1,4-diamine] | – | – | – | 5.63 | – | – | 5.28 | 5.24 | 6.31 | 5.26 | 6.14
6 | Fc1ccc(Nc2nccc(-c3c[nH]c4ccccc34)n2)cc1 [Compound 3, (4-Fluoro-phenyl)-[4-(1H-indol-3-yl)-pyrimidin-2-yl]-amine] | < 4.00 | 5.98 | 5.92 | 5.93 | < 4.00 | < 4.00 | – | – | – | – | –
7 | c1ccc2c(-c3ccnc(Nc4ccc(N5CCNCC5)cc4)n3)c[nH]c2c1 [Compound 7, 4-(1H-indol-3-yl)-N-(4-piperazin-1-ylphenyl)pyrimidin-2-amine] | – | – | – | 5.71 | – | – | 5.60 | 6.37 | 7.07 | 6.78 | 6.77
8 | CC(=O)N1CCN(c2ccc(Nc3nccc(-c4c[nH]c5c(C)cccc45)n3)cc2)CC1 [Compound 23] | – | – | – | 5.61 | – | – | 5.46 | – | 6.35 | 6.10 | 7.12
9 | CC(=O)N1CCN(c2ccc(Nc3nccc(-c4c(C)[nH]c5ccccc45)n3)cc2)CC1 [Compound 22] | – | – | – | 5.29 | – | – | 5.18 | – | 6.52 | 6.11 | 7.61
10 | c1ccc2c(-c3ccnc(Nc4ccc(N5CCOCC5)cc4)n3)c[nH]c2c1 [Compound 5, [4-(1H-Indol-3-yl)-pyrimidin-2-yl]-(4-morpholin-4-yl-phenyl)-amine] | – | – | < 5.00 | – | < 5.00 | – | – | – | 5.99 | 5.62 | 6.59
11 | COc1cc(Nc2nccc(-c3c[nH]c4ccccc34)n2)ccc1N1CCOCC1 [Compound 13, 4-(1H-indol-3-yl)-N-(3-methoxyl-4-morpholin-4-ylphenyl)pyrimidin-2-amine] | – | – | – | 5.12 | – | – | – | – | 5.60 | 5.17 | 6.64
12 | COc1cc(Nc2nccc(-c3c[nH]c4ccccc34)n2)cc(OC)c1OC [Compound 12, 4-(1H-indol-3-yl)-N-(3,4,5-trimethoxyphenyl)pyrimidin-2-amine] | – | – | – | 5.74 | – | – | – | – | 7.37 | 7.11 | 7.18
